Our source for the EC50 and IC50 values is patent US5059692A, “Novel compounds exhibiting a vasodilating activity and inhibitory activity for platelet aggregation” (priority 1989, dated 1991).

The test system of one test is rabbit mesenteric artery. Put plainly: Vasorelaxant Effect (V.R., ED50), KCl-precontracted mesenteric artery strips. Conditions: Oryctolagus cuniculus; rabbit superior mesenteric artery helical strips, precontracted with 20 mM KCl, 37°±0.5° C., cumulative addition. Here is the method:
Vasorelaxant Effect (V.R., ED50)
Male albino rabbits were killed by exanguination.
The vascular strips were vertically suspended in an organ bath filled with a Krebs-Henseleit solution the temperature of which was maintained at 37°±0.5° C. A mixture of 95% O2 -5% CO2 was constantly bubbled through the bicarbonate-based solution in the organ bath. Mechanical responses of the rabbit mesenteric artery evoked by a high concentration of KCl were measured isometrically using the force-displacement transducer.
After obtaining a reproducible response to KCl, the preparations were precontracted with 20 mM KCl and then relaxed by the cumulative addition of the compounds. The ED50 value was read from a plot of the percentage of the relaxing response (maximum contractile response to KCl was taken as 100%) vs. the log concentration of the compounds.

The test system of a further test is washed platelets. Kind of test: Inhibition of Platelets Aggregation (P.A.IC50), collagen-induced, washed platelets, turbidmetric method. The class given is cell-based. As to conditions: Platelet, human washed platelets, 37° C., 2 min preincubation. Here is the method: Inhibition of Platelets Aggregation (P.A.IC50)
Preparation of washed platelets (centrifugation method) Blood drawn from healthy human volunteers was anticoagulated with 1/10 volume of 0.38% sodium citrate. Platelets-rich plasma (PRP) was obtained by centrifugation of whole blood at 700× G for 10 minutes. The resulting PRP was then centrifuged at 1500× G for 10 minutes in the presence of 1/6 volume of ACD solution (2.2% of sodium citrate, 0.8% of citric acid and 2.2% of glucose), and the pellet was suspended with the modified HEPES-Tyrode solution (135 mM NaCl, 2.7 mM KCl, 1 mM MgCl2, 0.1% glucose, and 20 mM HEPES; pH 7.4).
After the platelet suspension was centrifuged again at 1500× G for 5 minutes with 1/6 volume of the ACD solution, the pellet was resuspended with the modified HEPES-Tyrode solution. Then the washed platelet suspension (=300,000 platelets/μl) was obtained.
Measurement of Platelet Aggregation (Turbidmetric Method)
Platelet aggregation was studied by the turbidmetric method with an 4 ch. aggregometer (HEMA tracer 601; Nikoh Bioscience Co., Japan). Test sample (3 μl, appropriate concentration) or vehicle (3 μl) was added to 270 μl of the platelet suspension and incubated at 37° C. with stirring for 2 minutes before the addition of 30 μl collagen ([…]).
Estimation of Inhibitory Action
The extent of aggregation was expressed by the maximum change of light transmission expressed as a percentage, taking the difference between light transmission for the platelet suspension and platelet-poor-plasma as a value of 100%. Percent inhibition of aggregation by a test compound was calculated by dividing the percent aggregation by that observed in the control run, then multiplying by 100. IC50 values were expressed as the concentrations of test compounds which produced 50% inhibition of the platelet aggregation.

For orientation: EC50 means the concentration at which the effect is half-maximal. `COC(=O)c1sc2c(c1N=CN(C)C)c1ccccc1c(=O)n2-c1ccccc1C` [compound 8, Methyl 1-dimethylaminomethyleneamino-4,5-dihydro-4-(2-methylphenyl)-5-oxo-thieno[2,3-c]isoquinoline-2-carboxylate] registered an EC50 in the test on rabbit mesenteric artery of 1.6 µM.

What is called IC50 is the concentration that inhibits the measured activity by half. Read a low IC50 as greater potency in that assay. Consider `COC(=O)c1sc2c(c1N)c1ccccc1c(=O)n2-c1ccccc1Cl` [compound 4, Methyl 1-amino-4-(2-chlorophenyl)-4,5-dihydro-5-oxo-thieno[2,3-c]isoquinoline-2-carboxylate], for which, in the test with rabbit mesenteric artery, it took 5.7 µM to reach a half-maximal effect (EC50). Moreover, the IC50 in the test on washed platelets stood at 0.1 µM.

With `COC(=O)c1sc2c(c1N=CN(C)C)c1ccccc1c(=O)n2-c1ccccc1` [compound 7, Methyl 1-dimethylaminomethyleneamino-4,5-dihydro-5-oxo-4-phenyl-thieno[2,3-c]isoquinoline-2-carboxylate], a half-maximal response in the test with rabbit mesenteric artery (EC50) required 74 µM. The compound also showed an IC50 with washed platelets of 100 µM.

As to `COC(=O)c1sc2c(c1N)c1ccccc1c(=O)n2-c1ccccc1C` [compound 2, Methyl 1-amino-4,5-dihydro-4-(2-methylphenyl)-5-oxo-thieno[2,3-c]isoquinoline-2-carboxylate], in the test with rabbit mesenteric artery, the EC50 worked out at 4.6 µM. Further, the IC50 in the test on washed platelets turned out to be 0.56 µM.

With `COC(=O)c1sc2c(c1N=C1CCCN1C)c1ccccc1c(=O)n2-c1ccccc1C` [compound 9, Methyl 4,5-dihydro-4-(2-methylphenyl)-1-(1-methyl-2-pyrrolidinylideneamino)-5-oxo-thieno[2,3-c]isoquinoline-2-carboxylate], the EC50 in the test with rabbit mesenteric artery came out at 1.1 µM. This compound also showed an IC50 in the test with washed platelets of 100 µM.

As to `COC(=O)c1sc2c(c1N)-c1ccccc1CN2c1ccccc1` [compound 10, Methyl 1-amino-4,5-dihydro-4-phenyl-thieno[2,3-c]isoquinoline-2-carboxylate], the EC50 in the test with rabbit mesenteric artery is 8 µM. Further, the half-maximal inhibitory concentration (IC50) with washed platelets turned out to be 0.31 µM.

Turning to `COC(=O)c1sc2c(c1N)c1ccccc1c(=O)n2-c1ccccc1` [compound 1, Methyl 1-amino-4,5-dihydro-5-oxo-4-phenyl-thieno[2,3-c]isoquinoline-2-carboxylate], the response in the test with rabbit mesenteric artery was half-maximal at 20 µM (EC50). Also, half-maximal inhibition in the test on washed platelets (IC50) was put at 0.023 µM.

`COC(=O)c1sc2c(c1N)c1ccsc1c(=O)n2-c1ccccc1` [compound 3, Methyl 1-amino-4,5-dihydro-5-oxo-4-phenyl-dithieno[2,3-b:3',2'-d]pyridine-2-carboxylate]: half-maximal inhibition with washed platelets (IC50) was put at 0.26 µM.
